{
  "source": "patent US5985824A",
  "about": "“Methods and compositions for treating cystic fibrosis” (priority 1997, dated 1999)",
  "key": {"immune responses": {"test_system": "immune responses", "details": "T-cell dependent assays and models; cited from earlier work"}, "ΔF508-CFTR (IBE-1 cells) [1]": {"test_system": "ΔF508-CFTR (IBE-1 cells)", "assay": "whole cell patch-clamp analysis of IBE-1 cells", "type": "cell-based, human", "details": "for reversal potential: DSG-treated cells", "procedure": "The bath (extracellular) solution contained: 140 mM N-methyl-Dglucamine (NMDG), 2 mM CaCl2, 1 mM MgCl2, 0.1 mM CdCl2, 10 mM HEPES, 4 mM CsCl, and 10 mM glucose, pH 7.4. These solutions were designed so as to study only currents flowing through Cl^- channels, since Cl^- was the only significant permeant ion in the solutions. Furthermore, Ca^2+ -activated Cl^- currents were minimized by inclusion of 10 mM EGTA in the intracellular solution and 100 μM of Cd^2+ in the extracellular bath. K^+ currents were minimized by including 20 mM TEA in the intracellular solution. Aspartate was used as the replacement anion in experiments in which extracellular Cl^- concentration was changed. Forskolin (10 μM), IBMX (100 μM), 8-(4-chlorophenylthio)-cAMP (cpt-cAMP, 200 μM), diphenylamine carboxylic acid (DPC, 200 μM), UTP (100 μM), and ionomycin (1 μM) were added to the bath solutions as indicated. Current recordings were made from the same cells before, during, and after exposure to the solutions containing the different agonists or inhibitors. All experiments were performed at room temperature (22° C.). Currents were filtered at 2 kHz. Data acquisition and analysis were performed using the PCLAMP 5.5.1 software (Axon Instruments, Foster City, Calif.).\nIn all of the successfully patched CF IBE-1 cells from 6 separate coverslips no activation of whole cell currents in response to forskolin (10 μM) plus IBMX (100 μM) or cpt-cAMP (200 μM) was detected (FIG. 10A and 10B), indicating no endogenous CFTR channel activity in these cells. In contrast, in 7 out of 19 successful patched cells from 19 separate coverslips treated with DSG (10 μM) for 48 to 72 hrs. a significant activation of whole cell currents was observed. As all the other cells, the holding potential was 0 m, which inactivated the voltage-gated Na^+ and Ca^++ channels. After addition of 200 μM cpt-cAMP to the bath solution, voltage steps from the holding potential to between -100 mV and 80 mV in 20 mV increments activated whole cell currents. In these experiments, the intracellular and extracellular solutions were designed to study only current flowing through Cl^- channels, since Cl^- is the only significant permeant ion in solution. Ca^++ and K^+ currents were minimized by 100 μM of extracellular Cd^++ and 20 mM of intracellular TEA respectively. Furthermore, the currents were ascertained to be Cl^- currents from change in the reversal potential which was shifted from 1.1±1.5 to 47.3±6.1 mV by reducing extracellular Cl^- from 150 mM to 20 mM.\nIt is highly unlikely that Ca^++ -activated Cl^- was recorded in these experiments because of the presence of 10 mM intracellular EGTA and 100 µM extracellular Cd^++. […] Special attention was paid to detect possible contribution of the outwardly rectifying Cl^- channel (ORCC) to the whole cell currents. Because of a possible upregulatory role of CFTR, ORCC can be activated in normal but not in CF airway epithelial cells (Hwang et al. (1989), supra.; Li et al. (1988), Nature 331: 358-360; Morris and Frizzel (1993); Am. J. Physiol.; Schwiebert et al. (1994), Am. J. Physiol.)."}, "ΔF508-CFTR (IBE-1 cells) [2]": {"test_system": "ΔF508-CFTR (IBE-1 cells)", "assay": "SPQ halide efflux assay, cAMP-stimulated Cl- channel activity, IBE-1 cells", "type": "cell-based, human", "details": "DSG 5 to 50 μg/ml, 72 h", "procedure": "The cAMP-dependent CFTR Cl^- channel activity was assessed using the halide-sensitive fluorophore 6-methoxy-N-(3-sulfopropyl)-quinolinium (SPQ) essentially as described previously (Cheng et al., (1995), supra.; Marshall et al., supra.). Briefly, the cells were treated with different amounts of DSG for the times specified. At the end of the treatment period, the cells were loaded with SPQ by hypotonic shock for 4 min at room temperature. SPQ fluorescence initially was quenched by incubating the cells for up to 30 min in a NaI buffer (135 mM NaI, 2.4 mM K2 HPO4, 0.6 mM KH2 PO4, 1 mM MgSO4, 1 mM CaSO4, 10 mM dextrose, and 10 mM N-2 hydroxyethylpiperazine-N'2-ethanesulfonic acid, pH 7.4). After measuring the baseline fluorescence (Fo) for 2 min., the NaI solution was replaced with one containing 135 mM NaNO3, and fluorescence was measured for another 16 min. […]\nAn increase in halide permeability is reflected by a more rapid increase in SPQ fluorescence. […] Differences in absolute levels reflect quantitative differences between groups in SPQ loading, size of cells, or number of cells studied. The data are presented as means± SE of fluorescence at time t (Ft) minus the baseline fluorescence (Fo, the average fluorescence measured in the presence of I^- for 2 min. before ion substitution) and are representative of results obtained under each condition. […]"}},
  "note": "“Also recorded” adds a separate entry of the source.",
  "data": [
    {"smiles": "N=C(N)NCCCCCCC(=O)NC(O)C(=O)NCCCCNCCCN", "note": "(stereo not shown) [DSG, deoxyspergualin]", "values": [
      {"measurement": "immunosuppressive activity, in words", "setting": "immune responses", "result": "potent immunosuppressive activity"},
      {"measurement": "successfully patched cells with significant activation of whole cell currents", "setting": "ΔF508-CFTR (IBE-1 cells) [1]; DSG (10 μM) 48 to 72 hrs, cAMP stimulation", "result": "7 out of 19"},
      {"measurement": "reversal potential", "setting": "ΔF508-CFTR (IBE-1 cells) [1]; extracellular Cl- 150 mM", "result": "1.1±1.5", "unit": "mV"},
      {"measurement": "reversal potential", "setting": "ΔF508-CFTR (IBE-1 cells) [1]; extracellular Cl- reduced to 20 mM", "result": "47.3±6.1", "unit": "mV"},
      {"measurement": "whole cell currents, in words", "setting": "ΔF508-CFTR (IBE-1 cells) [1]; IBE-1 cells", "result": "resembled those of wild-type CFTR in epithelial cells; also recorded: almost identical to that recorded in transduced CF IBE-1 cells"},
      {"measurement": "cAMP-stimulated Cl- channel activity, in words", "setting": "ΔF508-CFTR (IBE-1 cells) [2]", "result": "concentration-dependent, with higher concentrations of DSG giving rise to greater transport rates and higher numbers of positively-responding cells; also recorded: comparable to that observed when these cells were cultured at a reduced temperature"},
      {"measurement": "cells exhibiting measurable cAMP-stimulated Cl- channel activity", "setting": "ΔF508-CFTR (IBE-1 cells) [2]; FIG. 9B", "result": "up to 20%"}
    ]}
  ]
}
